Test results taken from PubChem BioAssay (NCI).
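Results reflect a 48-hour exposure of cells in 96-well plates to compound at five concentrations. The concentration for 50% growth inhibition is given as GI50. TGI: concentration producing complete growth inhibition.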

Legend:
Assay in all cases: NCI tumour cell line growth inhibition, 48 h
[1] = tested on: SK-MEL-28 melanoma
[2] = tested on: A498 renal
[3] = tested on: TK-10 renal
[4] = tested on: UACC-62 melanoma
[5] = tested on: SK-OV-3 ovarian
[6] = tested on: A549 NSCLC
[7] = tested on: SF-539 CNS
[8] = tested on: RXF 393 renal
[9] = tested on: HL-60(TB) leukemia
[10] = tested on: BT-549 breast
[11] = tested on: PC-3 prostate
[12] = tested on: M14 melanoma
[13] = tested on: SNB-75 CNS
[14] = tested on: NCI/ADR-RES ovarian

Compound `NC(N)=Nc1ccc(Oc2cccc(Nc3cccc(C(F)(F)F)c3)c2)cn1` has a GI50 [1] of 1700 nM, a TGI [1] of 3160 nM and a GI50 [2] of 1510 nM. The TGI [2] was 3020 nM, the GI50 [3] was 1850 nM and the TGI [3] was 3630 nM. For the same compound, the GI50 [4] was 1790 nM, the TGI [4] was 3400 nM and the GI50 [5] was 2080 nM. It also gave a TGI [5] of 4270 nM, a GI50 [6] of 1880 nM and a TGI [6] of 4420 nM. For the same compound, the GI50 [7] was 1720 nM, the TGI [7] was 3220 nM and the GI50 [8] was 1760 nM. It also gave a TGI [8] of 3390 nM, a GI50 [9] of 2040 nM and a TGI [9] of 4360 nM. For the same compound, the GI50 [10] was 1760 nM, the TGI [10] was 3300 nM and the GI50 [11] was 1470 nM. It also gave a TGI [11] of 2880 nM, a GI50 [12] of 1760 nM and a TGI [12] of 3330 nM. It also gave a GI50 [13] of 1370 nM, a TGI [13] of 2740 nM and a GI50 [14] of 4850 nM. The TGI [14] was 37600 nM.
